Test results as given in US20100119528A1, “Transport of Biologically Active Molecules into a Cell, Mitochondrion, or Nucleus” (priority 2008, published 2010).

Tested on: mitochondria
Assay: Peptide-mediated delivery of cargo into cells/mitochondria (fluorescence microscopy)
Type: cell-based
Protocol: Cells, indicated above, were grown in 8-well culture slides. Peptide/protein complexes were formed in a volume of 100 μl in OptiMEM and incubated for 30 min at 37° C. Approximately 10,000 Cells grown to 75% confluence were overlaid with these preformed complexes. After 30 min of incubation at 37° C., 500 μl of fresh DMEM supplemented with 10% FBS was added to the cells and incubated for an additional 30 min. Cells were then washed with PBS followed by fixing with 4% paraformaldehyde in PBS. Cells were then mounted with flourescent-FragEL Mounting media (Calbiochem) containing DAPI nuclear stain before microscopic analysis. See, e.g., FIGS. 1, 2, 3, and 11.

How did the “delivery of Alexa-IgG into mitochondria” value (FIG. 1, 10 picomol Alexa-tagged IgG, SEQ ID NO:19 from 0 to 2000 pm, orange = red plus green stain) turn out when “AAVALLPAVLLALLAPMSVLTPLLLRGLTGSARRLPVPRAKIHSL (AAVALLPAVLLALLAPMSVLTPLLLRGLTGSARRLPVPRAKIHSL) [SEQ ID NO:19]” was run?
The value was “Alexa-IgG complex has entered the mitochondria”.

What about the “delivery of FITC-tagged oligonucleotide” value (FIG. 2, green = mitochondria stained by FITC complex, blue = DAPI nucleus) of the same substance?
Its value is “demonstrates delivery of FITC-tagged oligonucleotide”.

What about the “delivery of double-stranded circular plasmid (~5.5 kb) into the mitochondria” value (FIG. 3, DNA stain, small blue dots = mitochondria) of the same substance?
The value was “delivery of a double-stranded circular plasmid (˜5.5 kb) into the mitochondria”.
